Active and inactive are the calls of the source.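 The calls were made as follows: active = mean IC50 at or below a set limit; inactive = the rest.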
Legend:
[1] = NF-kB reporter suppression in B cells – 697 B cells, PMA/ionomycin, luminescence, dose response (AID 489034); conditions: 697 B-cell NF-kB luciferase reporter, PMA/ionomycin, 16 h; at 80 µM (top of the series)
[2] = test system: 697 B-cell NF-kB luciferase reporter, PMA/ionomycin, 16 h; test: as above

| SMILES | inhibition [1] | IC50 [2] |
| --- | --- | --- |
| N=c1c2c(n(Cc3ccc(Br)cc3)c3c1CCC3)CCCC2 | 60.6% (inactive) |  |
| OCCCNc1nccc(-c2cc(Nc3cccc(Cl)c3)ncn2)n1 |  | 4100 nM |
| CCCCCCn1c2c(c(=N)c3c1CCC3)CCC2 |  | > 80000 nM (inactive) |
| CCN1/C(=C/c2ccc3cc(C)ccc3[n+]2CC)Sc2ccccc21 |  | > 80000 nM (inactive) |
| Cc1cc2sc3ccc(C#CC4(O)CCCCC4)cc3c(=O)c2cc1C |  | < 160 nM |
| COc1ccc(CN(C)c2ccc(S(=O)(=O)N3CCN(C)CC3)cc2[N+](=O)[O-])cc1OC |  | > 80000 nM (inactive) |
| CC(=O)OC(C)(C)/C=C/C(=O)[C@](C)(O)C1[C@H](O)C[C@@]2(C)C3CC=C4C(C[C@H](O)C(=O)C4(C)C)[C@]3(C)C(=O)C[C@]12C (some centres undefined) |  | 7020 nM |
| COc1cccc2c1C(CO)N1C(C#N)C3CC(C(=O)O)C(C1C2)N3C (centres undefined) |  | 253 nM |
| C[C@H](NC(=O)c1nc[nH]c1C(=O)N[C@@H](C)C(=O)OCc1ccccc1)C(=O)OCc1ccccc1 |  | > 80000 nM (inactive) |
| N=c1c2c(-c3ccccc3)c(-c3ccccc3)n(Cc3ccccc3)c2ncn1CCCn1ccnc1 |  | 32200 nM (inactive) |
| Cn1nc(CC(=O)Nc2ccc3c(c2)OCCO3)c2ccccc2c1=O |  | 68700 nM (inactive) |
| C#CC(=O)N(c1cc(OC)ccc1OC)C(C(=O)NC1CCCC1)c1cccs1 (centres undefined) |  | 219 nM |
| CCn1c(C)nc2cc(-c3nc4n(n3)Cc3ccccc3-4)ccc21 |  | 198 nM |
| O=C(CN1C(=O)c2ccccc2S1(=O)=O)c1ccc2c(c1)OCCCO2 |  | < 160 nM |
| COc1cc2nc(NC(=O)c3ccccc3)sc(=O)c2cc1OC |  | 444 nM |
| OCCCNc1cc(-c2ccnc(Nc3cccc(Cl)c3)n2)ccn1 |  | < 160 nM |
| N=c1ccn2c(n1)O[C@H]1[C@@H](CO)[C@H](O)O[C@H]12 | 48.5% |  |
| COc1cc(NC(C)CCCN)c2ncccc2c1 (centres undefined) |  | > 80000 nM (inactive) |
| COc1cccc(NC(=O)Nc2cccc(C(=O)O)c2)c1 |  | 1620 nM |
| CN(C)c1ccc(-c2n(C)c3ccccc3[n+]2C)cc1 |  | > 80000 nM (inactive) |
| COc1ccccc1C(=O)Nc1nc(-c2ccc(S(=O)(=O)N3CCOCC3)cc2)cs1 |  | 7170 nM |
| O=C(CCl)N=c1sccn1Cc1ccccc1Cl |  | 222 nM |
| COc1ccc(-c2c[n+]3c(n2-c2ccc(C)cc2)CCCCC3)cc1 |  | > 80000 nM (inactive) |
| C#CC(=O)N(c1ccc(OC)cc1OC)C(C(=O)NC1CCCC1)c1cccs1 (centres undefined) |  | 252 nM |
| Nc1nc(F)nc2c1ncn2[C@@H]1O[C@H](CO)[C@@H](O)[C@H]1O |  | 1370 nM |

| SMILES | inhibition [1] | IC50 [2] |
| --- | --- | --- |
| CN(C)c1cc[n+](CC(=O)c2ccc(-c3ccccc3)cc2)cc1 |  | 47400 nM (inactive) |
| NC1=NC[C@H](Cc2ccc(O)cc2)N1CCCCC1CCCCC1 |  | > 80000 nM (inactive) |
| CCOc1ccc(-n2c(-c3ccc(OC)cc3)c[n+]3c2CCCCC3)cc1 |  | > 80000 nM (inactive) |
| COc1ccc(CCNc2c(C)c(C)nc3ncnn23)cc1 |  | > 80000 nM (inactive) |
| O=S(=O)(NCC1CCCO1)c1ccc(-c2ccc(S(=O)(=O)NCC3CCCO3)cc2)cc1 (centres undefined) |  | > 80000 nM (inactive) |
| Nc1ncnc2c1ccn2[C@@H]1O[C@H](CO)[C@@H](O)[C@H]1O |  | 1010 nM |
| Nc1nc(Cl)nc2c1ncn2C1CC(O)C(CO)O1 (centres undefined) |  | > 80000 nM (inactive) |
| CC1(c2ccc3ccccc3c2)NC(=O)N(CC(=O)N2CCN(Cc3ccc(C#N)cc3)CC2)C1=O (centres undefined) |  | > 80000 nM (inactive) |
| C[C@@H]1O[C@@H](O[C@@H]2C=C3CCC4C(CC[C@]5(C)[C@@H](c6ccc(=O)oc6)CC[C@]45O)[C@@]3(C)CC2)[C@H](O)[C@H](O)[C@H]1O (some centres undefined) |  | < 160 nM |
| CC(=O)O[C@H]1[C@H]2O[C@]23[C@@H]2CC[C@]4(O)C[C@@H](O)CC[C@]4(C)C2CC[C@]3(C)[C@H]1c1ccc(=O)oc1 (some centres undefined) |  | 223 nM |
| Cc1ccc(OCCN2CCN(c3ncnc4sc(C)c(C)c34)CC2)cc1 |  | > 80000 nM (inactive) |
| Cc1cc([N+](=O)[O-])nn1Cc1ccccc1F |  | > 80000 nM (inactive) |
| COc1ccc(OC)c(C2C3=C(COC3=O)Nc3cc4c(cc32)OCO4)c1 (centres undefined) |  | > 80000 nM (inactive) |
| COc1ccc(-c2nc(-c3ccccn3)no2)cc1 |  | 872 nM |
| CC(C)(O)c1[nH]c2ccc(C#N)cc2c1C(C)(C)O |  | > 80000 nM (inactive) |
| c1ccc(-c2ccc(-c3nc(-c4ccccn4)no3)cc2)cc1 |  | 967 nM |
| CC(C)c1ccc(-c2nnn(CCC(=O)O)n2)cc1 |  | 202 nM |
| C[n+]1c(-c2ccccc2)c2cc(N)ccc2c2ccc(N)cc21 |  | > 80000 nM (inactive) |
| O=C(CCl)N1CCCC1c1ccc2c(c1)OCCO2 (centres undefined) |  | 478 nM |
| Cc1cc(N2CCN(c3nc4ccccc4s3)CC2)n2ncnc2n1 |  | > 80000 nM (inactive) |
| CCCCCn1c(=O)[nH]c2cc(C(=O)N3CCN(Cc4ccc5c(c4)OCO5)CC3)ccc2c1=O |  | > 80000 nM (inactive) |
| CC1CCc2c(sc(NC(=O)CSc3ncn[nH]3)c2C#N)C1 (centres undefined) |  | 209 nM |
| Cc1cc(C(=O)COC(=O)c2ccccc2O)c(C)n1CC1CCCO1 (centres undefined) |  | 267 nM |
| Nc1nc(Cl)nc2c1ncn2[C@H]1C[C@H](O)[C@@H](CO)O1 |  | 5060 nM |

Reference: PubChem BioAssay AID489034 (Sanford-Burnham Center for Chemical Genomics, 2010)
